Laboratory results: patent publication US6955818B1, “Pour-on formulations” (Eli Lilly and Company, priority 1999, dated 2005)
“Also recorded” adds a separate entry of the source.

Legend:
Merino sheep skin = assay: Pour-on carrier/vehicle sheep skin irritation studies (histological scoring); assay type: in vivo; settings: for skin irritancy / histological dermatitis (in words): applied to skin of recently shorn Merino sheep, histology; for Mean skin irritation scores: 1 mL applied to skin of recently shorn Merino sheep, histological score 0-15 (0 no change, 15 very severe damage; normal 2-4, >4 abnormal, >7 very abnormal)
Description: Studies were conducted to investigate and characterise the changes occurring in Merino sheep skin following the application of a range of candidate pour-on formulation components in order to discern safe carriers. Chemicals, emollients, wool grease derivatives and a wide range of formulations were applied (in 1 mL volumes) to each of 18 sites on the back and flanks of 15 recently shorn Merino sheep.
In the first study, skin samples were collected at necropsy 3½weeks after application. In subsequent studies, skin samples were collected 2 weeks after application. Standard haematoxylin and eosin stained sections were prepared from each piece of treated skin. A histological scoring system was devised to allow comparison of treatments. Each skin was assessed for the degree of hyperkeratosis, acanthosis and inflammatory cell infiltrate of the superficial dermis and given a rating score from 0–15. A score of 0=no change through to a score of 15 for very severe damage. Normal skin scored 2–4, >4 was abnormal and >7 was very abnormal. Treatments yielding a score ? 4.5 were considered safe. […]

Bovicola ovis [1] = assay: Example 3: spinosad in a variety of carriers as pour-on, lice control on sheep housed indoors; assay type: in vivo; settings: carrier containing spinosad, 0.4 mg/kg, 1 mL/5 kg
Description: The aim of this study was to select the most efficacious of a range of eight formulations that were selected on the basis of safety, physical properties, efficacy, cost and theories of dermal insecticide spread.
Each formulation was prepared to provide spinosad at a dose of 0.4 mg/kg and applied at a rate of 1 mL/5 kg of body weight.

[2] = Example 5: diffusion of 14C-zeta-cypermethrin on sheep skin in a variety of carriers; assay type: in vivo; settings: 1 mL/5 kg on backline of sheep; for spread of zeta-cypermethrin from the backline (in words): carrier with 10 mg/mL 14C-spiked zeta-cypermethrin, wool at 2, 7.5, 15 cm meridians up to day 14
Description: This study compared the amount and rate of diffusion of ^14C-labelled zeta-cypermethrin from the dorsal midline of sheep, when applied in wool grease, in an aqueous formulation and in a range of test carriers.
Each formulation was applied to the backline of three sheep at 1 mL/5 kg body weight. Wool was collected from three 12×12-mm squares chosen at random, along meridian lines drawn 2, 7.5 and 15 cm down the side of each sheep from the backline. The wool samples were collected at 1, 2, 4, 8, 11 and 14 days after treatment, and each day's samples were pooled. The clipped areas were also swabbed. At day 14 after treatment, the wool at the site of application was collected and back and perirenal fat samples were collected. The quantity of zeta-cypermethrin in each sample was measured by liquid scintillation counting.

[3] = Example 12: physical characteristics and freezing points of solvents and solvent combinations; assay type: physicochemical; settings: vehicle alone
Description: The physical characteristics of various individual solvents and solvent combinations were determined.

[4] = system: Bovicola ovis (highly synthetic pyrethroid (SP) resistant, Hartley strain of lice); assay: Example 2: wool grease formulations and IPM with zeta-cypermethrin and spinosad, lice control on sheep; assay type: in vivo; settings: for efficacy at eight weeks: 2 mL/10 kg
Description: The purposes of this study were to evaluate wool grease as a formulation to deliver spinosad, to determine the dose required to kill 100% of lice in sheep and to evaluate the suitability of the formulation to deliver zeta-cypermethrin, compared with an isopropyl myristate (IPM) formulation.
Sheep were heavily infested with the highly synthetic pyrethroid (SP) resistant, Hartley strain of lice. Sheep were shorn, lice counted and sheep allocated to ten groups of six sheep, each divided into three groups of two per treatment. All sheep were treated at the rate of 2 mL of test formulation/10 kg of body weight. Treatments were, respectively: wool grease only; 2 mg/kg deltamethrin and 4 mg/kg alphacypermethrin in commercial formulations; spinosad in wool grease at 0.08 mg/kg, 0.4 mg/kg, 2 mg/kg and 10 mg/kg; zeta-cypermethrin in wool grease at 0.66 mg/kg and 2 mg/kg; and spinosad in IPM at 0.4 mg/kg. Lice numbers were counted weekly for eight weeks.

[5] = system: Bovicola ovis (Hartley, Claremont, susceptible and slightly resistant strains); assay: Example 6: zeta-cypermethrin in a variety of carriers, lice control on sheep; assay type: in vivo; settings: for lice control, susceptible strain (in words): sheep infested with SP-susceptible strain
Description: These studies were devised to determine the efficacy of zeta-cypermethrin (at 2 mg/kg of body weight) in several nonaqueous formulations, and a commercial formulation of deltamethrin, on sheep infested with a severely synthetic pyrethroid (SP) resistant (Hartley) strain and a moderately SP resistant (Claremont) strain of Bovicola ovis. Some additional studies were undertaken with susceptible and slightly resistant lice to determine whether zeta-cypermethrin was able to kill lice under optimum conditions.

Bovicola ovis [6] = assay: Example 4: therapeutic efficacy and dose titration of spinosad pour-on, sheep housed outdoors; assay type: in vivo; settings: 1 mL/5 kg
Description: This study was carried out to select the dose of spinosad required to eradicate sheep body lice when applied as a pour-on in OP/IPM/OSU (70:15:15) containing 5% oleic acid, and to compare the efficacy of spinosad at 0.4 mg/kg in a suspension concentrate (SC) formulation applied as a pour-on with that of the pour-on organic solvent formulation. The spinosad formulations were applied at 1 mL/5 kg and at 0, 0.2, 0.4, 0.8, 1.6 and 3.2 mg/kg to 6 groups of 6 recently shorn sheep that were housed outdoors for 6 weeks.

[7] = 2 mg/kg (deltamethrin in commercial formulation; zeta-cypermethrin in wool grease)

Compound: CCCCCCCCCCC(CO)CCCCCCCC (centres unmarked) [2-octyl-dodecanol]
- skin irritancy / histological dermatitis (in words) (Merino sheep skin): highly irritant

Compound: CCCCOCCOCCO [DB, diethylene glycol n-butyl ether]
- Mean skin irritation scores (Merino sheep skin): 7
- skin irritancy / histological dermatitis (in words) (Merino sheep skin): highly irritant

Compound: COC(C)COC(C)CO (centres unmarked) [DPM, dipropylene glycol methyl ether]
- Mean skin irritation scores (Merino sheep skin): 4
- skin irritancy / histological dermatitis (in words) (Merino sheep skin): mild to moderate dermatitis

Compound: CC(=O)CC(C)(C)O [Diacetone alcohol]
- Mean skin irritation scores (Merino sheep skin): 2
- skin irritancy / histological dermatitis (in words) (Merino sheep skin): non-irritant

Compound: CCCCCCCCCCCCCC(=O)OC(C)C [IPM, isopropyl myristate]
- Mean skin irritation scores (Merino sheep skin): 8
- skin irritancy / histological dermatitis (in words) (Merino sheep skin): severe dermatitis
- efficacy by the end of the study (Bovicola ovis [1]): about 90%
- spread of zeta-cypermethrin from the backline (in words) [2]: greatest spread; also recorded: best spread
- skin reaction at the site of application ([2]; carrier with 10 mg/mL zeta-cypermethrin): severe scabbing/crusting of the skin
- freezing point [3]: −2 to −6 °C

Compound: CCCCCCCCCCCCCCCC(=O)OCCCCCCCC [OP, octyl palmitate]
- Mean skin irritation scores (Merino sheep skin): 3.3
- skin irritancy / histological dermatitis (in words) (Merino sheep skin): non-irritant
- Physical Properties (in words) [3]: spreads, lubricant

Compound: CCCCCCCCCCCCCCCCCC(=O)OCCCCCCCC [OS, octyl stearate]
- spread of zeta-cypermethrin from the backline (in words) [2]: modest spread; also recorded: better spread
- Physical Properties (in words) [3]: spreads, lubricant

Compound: CC1(C)C(C=C(Cl)Cl)C1C(=O)OC(C#N)c1cccc(Oc2ccccc2)c1 (centres unmarked) [alphacypermethrin]
- efficacy at eight weeks ([4]; 4 mg/kg (alphacypermethrin in commercial formulation)): 9%

Compound: CC1(C)[C@H](C(=O)O[C@H](C#N)c2cccc(Oc3ccccc3)c2)[C@@H]1C=C(Br)Br [deltamethrin]
- efficacy at eight weeks [4, 7]: 8%

Compound: CCCCCCCC/C=C\CCCCCCCC(=O)OC [methyl oleate]
- skin irritancy / histological dermatitis (in words) (Merino sheep skin): highly irritant

Compound: CC1(C)C(C=C(Cl)Cl)C1C(=O)OC(C#N)c1cccc(Oc2ccccc2)c1 (centres unmarked) [zeta-cypermethrin]
- efficacy at eight weeks ([4]; 0.66 mg/kg (zeta-cypermethrin in wool grease)): 0%
- efficacy at eight weeks [4, 7]: 43%
- lice control compared with the other treatments (in words) ([4]; weekly counts for eight weeks): no significant differences in efficacy at eight weeks; also recorded: better lice control than the commercial pour-ons for the first 5 weeks
- lice control, lice with high and moderate resistance to SPs (in words) ([5]; 2 mg/kg zeta-cypermethrin in nonaqueous formulations, commercial deltamethrin, Hartley and Claremont strains): did not give adequate control
- lice control, susceptible strain (in words) ([5]; zeta-cypermethrin 2 mg/kg pour-on): did control
- lice control, susceptible strain (in words) ([5]; zeta-cypermethrin 2 mg/kg pour-on, listed as Zeta-cypermethrin): eradicated lice
- lice control, mildly resistant strain (in words) ([5]; zeta-cypermethrin 2 mg/kg pour-on, sheep infested with mildly resistant strain): excellent control

Compound: isocetyl stearate [ICS]
- skin irritancy / histological dermatitis (in words) (Merino sheep skin): mild to moderate dermatitis

Compound: propylene glycol dicaprylate dicaprate
- skin irritancy / histological dermatitis (in words) (Merino sheep skin): highly irritant

Compound: spinosad
- Efficacy (%) at Day 41 (Bovicola ovis [6]; spinosad 0.2 mg/kg in OP/IPM/OSU (70:15:15) with 5% oleic acid): 37%
- Efficacy (%) at Day 41 (Bovicola ovis [6]; spinosad 0.4 mg/kg in OP/IPM/OSU (70:15:15) with 5% oleic acid): 46%
- Efficacy (%) at Day 41 (Bovicola ovis [6]; spinosad 0.8 mg/kg in OP/IPM/OSU (70:15:15) with 5% oleic acid): 78%
- Efficacy (%) at Day 41 (Bovicola ovis [6]; spinosad 1.6 mg/kg in OP/IPM/OSU (70:15:15) with 5% oleic acid): 37%
- Efficacy (%) at Day 41 (Bovicola ovis [6]; spinosad 3.2 mg/kg in OP/IPM/OSU (70:15:15) with 5% oleic acid): 93%
